# Measured values taken from patent US10894085B2, “System for thermotherapy treatment or prevention of antimicrobial resistant or biofilm infections” (FUNDACIÓ HOSPITAL UNIVERSITARI VALL D'HEBRON—INSTITUT DE …, priority 2016, dated 2021).
# Read-outs that look alike come from different tables or passages of the source.
# Tests used:
# Assay type in all cases: cell-based
# [1] = test system: Klebsiella pneumoniae strains; test: Antibiotic susceptibility (CLSI category) of K. pneumoniae clinical isolates; for Antibiotic susceptibility and clinical category (CLSI breakpoint): key: S, susceptible; R, resistant; I, intermediate
# [2] = test system: Acinetobacter baumannii isogenic strains; test: microbe, parasite or virus in culture; conditions: for MIC: Acinetobacter baumannii
# [3] = test system: Pseudomonas aeruginosa strains; test: Susceptibility (MIC, CLSI category) of P. aeruginosa clinical isolates; for clinical category (CLSI breakpoint): key: S, susceptible; R, resistant; I, intermediate
# S. epidermidis = test: MIC by broth microdilution (Table 4), S. epidermidis
# Description: (§1) The minimum inhibitory concentration (MIC) values were determined by broth microdilution method according to “Methods for Dilution Antimicrobial Susceptibility Tests for Bacteria That Grow Aerobically: Approved Standard M7-A7. CLSI, Wayne, Pa., USA, 2006” Colistin and amikacin free drugs were evaluated to compare the efficacy of nanoparticles. MIC was evaluated in Pa46, Pa1016, Kp1, Kp4, Abl4, Ab4256, MRSA 15, MRSA 16, SE14 an SE94 strains. ATCC P. aeruginosa 27853, ATCC E. coli 25922 and ATCC A. baumannii 19606 were used as quality control.
# [4] = test system: methicillin-resistant S. aureus; test: MIC by broth microdilution (Table 4), MRSA
# Description: as §1
# K. pneumoniea = test: MIC by broth microdilution (Table 4), K. pneumoniae
# Description: as §1
# A. baumannii = test: MIC by broth microdilution (Table 4), A. baumannii
# Description: as §1
# P. aeruginosa = test: MIC by broth microdilution (Table 4), P. aeruginosa
# Description: as §1
# [5] = strain Kp1 (XDR, CTX-M, OXA-48)
# [6] = read-out: MIC values, strain Abl1 (ST103)
# [7] = read-out: MIC values, strain Abl4 (ST2)
# [8] = read-out: MIC values, strain Abl4256 (ST38)
# [9] = Pseudomonas aeruginosa, strain Pa46 (ST111, XDR, VIM-2), read-out: MIC
# [10] = Pseudomonas aeruginosa, strain Pa54 (ST111, XDR, VIM-2), read-out: MIC
# [11] = Pseudomonas aeruginosa, strain Pa1016 (ST175, XDR), read-out: MIC
compound,measurement,setting,value
"CO/N=C(\C(=O)N[C@@H]1C(=O)N2C(C(=O)[O-])=C(C[N+]3(C)CCCC3)CS[C@H]12)c1csc(N)n1 [FEP, cefepime]",Antibiotic susceptibility and clinical category (CLSI breakpoint),[1]; [5],R
same,Antibiotic susceptibility and clinical category (CLSI breakpoint),"[1]; strain Kp2 (XDR, CTX-M, NDM)",R
same,Antibiotic susceptibility and clinical category (CLSI breakpoint),"[1]; strain Kp3 (XDR, KPC)",R
same,Antibiotic susceptibility and clinical category (CLSI breakpoint),"[1]; strain Kp4 (XDR, AmpC)",R
same,MIC,[2]; [6],≥ 64 µg/mL
same,MIC,[2]; [7],≥ 64 µg/mL
same,MIC,[2]; [8],16 µg/mL
"C[C@H]1COc2c(N3CCN(C)CC3)c(F)cc3c(=O)c(C(=O)O)cn1c23 [LVX, levofloxacin]",MIC,[3]; [9],32 µg/mL
same,MIC,[3]; [10],32 µg/mL
same,MIC,[3]; [11],128 µg/mL
same,clinical category (CLSI breakpoint),[3]; strain Pa46,R
same,clinical category (CLSI breakpoint),[3]; strain Pa54,R
same,clinical category (CLSI breakpoint),[3]; strain Pa1016,R
same,MIC,[2]; [6],4 µg/mL
same,MIC,[2]; [7],4 µg/mL
same,MIC,[2]; [8],≤ 1 µg/mL
"C[C@@H](O)[C@H]1C(=O)N2C(C(=O)O)=C(S[C@@H]3CN[C@H](C(=O)N(C)C)C3)[C@H](C)[C@H]12 [MEM, meropenem]",Antibiotic susceptibility and clinical category (CLSI breakpoint),[1]; [5],R
same,Antibiotic susceptibility and clinical category (CLSI breakpoint),"[1]; strain Kp2 (XDR, CTX-M, NDM)",R
same,Antibiotic susceptibility and clinical category (CLSI breakpoint),"[1]; strain Kp3 (XDR, KPC)",R
same,Antibiotic susceptibility and clinical category (CLSI breakpoint),"[1]; strain Kp4 (XDR, AmpC)",R
same,MIC,[2]; [6],≥ 16 µg/mL
same,MIC,[2]; [7],≥ 16 µg/mL
same,MIC,[2]; [8],> 16 µg/mL
colistin,MIC,S. epidermidis; strain SE14,32 to 64 mg/L
same,MIC,S. epidermidis; strain SE94,32 mg/L
same,susceptibility,[1]; strain Kp1,susceptible
same,Antibiotic susceptibility and clinical category (CLSI breakpoint),[1]; [5],S
same,susceptibility,[1]; strain Kp2,susceptible
same,Antibiotic susceptibility and clinical category (CLSI breakpoint),"[1]; strain Kp2 (XDR, CTX-M, NDM)",S
same,susceptibility,[1]; strain Kp3,susceptible
same,Antibiotic susceptibility and clinical category (CLSI breakpoint),"[1]; strain Kp3 (XDR, KPC)",S
same,susceptibility,[1]; strain Kp4,susceptible
same,Antibiotic susceptibility and clinical category (CLSI breakpoint),"[1]; strain Kp4 (XDR, AmpC)",S
same,clinical category (CLSI breakpoint),[3]; strain Pa46,S
same,susceptibility,[3]; strain Pa46,susceptible
same,MIC,"[3]; strain Pa46 (ST111, XDR, VIM-2)",0.5 µg/mL
same,clinical category (CLSI breakpoint),[3]; strain Pa54,S
same,susceptibility,[3]; strain Pa54,susceptible
same,MIC,"[3]; strain Pa54 (ST111, XDR, VIM-2)",0.5 µg/mL
same,clinical category (CLSI breakpoint),[3]; strain Pa1016,S
same,susceptibility,[3]; strain Pa1016,susceptible
same,MIC,"[3]; strain Pa1016 (ST175, XDR)",1 µg/mL
same,MIC,[4]; strain MRSA15,>128 mg/L
same,MIC,K. pneumoniea; strain Kp1,1 mg/L
same,MIC,K. pneumoniea; strain Kp4,0.125 to 0.25 mg/L
same,susceptibility,[2]; strain AbII (ST103),susceptible
same,MIC values,[2]; strain Abl1 (ST103),<=0.5 mg/L
same,MIC values,[2]; strain Abl4 (ST2),<=0.5 mg/L
same,susceptibility,[2]; strain Abl4 (ST2),susceptible
same,MIC values,[2]; strain Abl4256 (ST38),0.25 mg/L
same,MIC,A. baumannii; strain Ab4256,0.25 mg/L
same,MIC,A. baumannii; strain Abl4,1 mg/L
same,MIC,P. aeruginosa; strain Pa46,0.5 to 1 mg/L
same,MIC,P. aeruginosa; strain Pa1016,0.5 to 1 mg/L
"CN(C)c1cc(NC(=O)CNC(C)(C)C)c(O)c2c1C[C@H]1C[C@H]3[C@H](N(C)C)C(O)=C(C(N)=O)C(=O)[C@@]3(O)C(O)=C1C2=O [TIG, tigecycline]",MIC,[2]; [6],2 µg/mL
same,MIC,[2]; [7],4 µg/mL
same,MIC,[2]; [8],0.5 µg/mL
same,susceptibility,[2]; strain AbII (ST103),susceptible
same,susceptibility,[2]; strain Abl4 (ST2),susceptible
"C[C@H]1[C@H](NC(=O)/C(=N\OC(C)(C)C(=O)O)c2csc(N)n2)C(=O)N1S(=O)(=O)O [ATM, aztreonam]",MIC,[3]; [9],16 µg/mL
same,MIC,[3]; [10],32 µg/mL
same,MIC,[3]; [11],32 µg/mL
"NC[C@H]1O[C@H](O[C@H]2[C@H](O)[C@@H](O[C@H]3O[C@H](CO)[C@@H](O)[C@H](N)[C@H]3O)[C@H](N)C[C@@H]2N)[C@H](N)C[C@@H]1O [TOB, tobramycin]",MIC,[3]; [9],64 µg/mL
same,MIC,[3]; [10],128 µg/mL
same,MIC,[3]; [11],16 µg/mL
same,clinical category (CLSI breakpoint),[3]; strain Pa46,R
same,clinical category (CLSI breakpoint),[3]; strain Pa54,R
same,clinical category (CLSI breakpoint),[3]; strain Pa1016,R
CCN1CCN(C(=O)N[C@@H](C(=O)N[C@@H]2C(=O)N3[C@@H]2SC(C)(C)[C@@H]3C(=O)O)c2ccccc2)C(=O)C1=O [PIP],MIC values,[2]; strain Abl1 (ST103),>=128 mg/L
same,MIC values,[2]; strain Abl4 (ST2),>=128 mg/L
same,MIC values,[2]; strain Abl4256 (ST38),>64 mg/L
"C[C@@H]1O[C@@H]1P(=O)(O)O [FOS, fosfomycin]",susceptibility,[1]; strain Kp1,susceptible
same,Antibiotic susceptibility and clinical category (CLSI breakpoint),[1]; [5],S
same,susceptibility,[1]; strain Kp2,susceptible
same,Antibiotic susceptibility and clinical category (CLSI breakpoint),"[1]; strain Kp2 (XDR, CTX-M, NDM)",S
same,Antibiotic susceptibility and clinical category (CLSI breakpoint),"[1]; strain Kp3 (XDR, KPC)",R
same,Antibiotic susceptibility and clinical category (CLSI breakpoint),"[1]; strain Kp4 (XDR, AmpC)",R
"NCC[C@H](O)C(=O)N[C@@H]1C[C@H](N)[C@@H](O[C@H]2O[C@H](CN)[C@@H](O)[C@H](O)[C@H]2O)[C@H](O)[C@H]1O[C@H]1O[C@H](CO)[C@@H](O)[C@H](N)[C@H]1O [Amikacin, amikacin]",MIC,"S. epidermidis; Staphylococcus epidermidis, strain SE14, read-out: MIC",1 to 2 mg/L
same,MIC,"S. epidermidis; Staphylococcus epidermidis, strain SE94, read-out: MIC",1 mg/L
same,susceptibility,[1]; strain Kp1,susceptible
same,Antibiotic susceptibility and clinical category (CLSI breakpoint),[1]; [5],S
same,Antibiotic susceptibility and clinical category (CLSI breakpoint),"[1]; strain Kp2 (XDR, CTX-M, NDM)",R
same,Antibiotic susceptibility and clinical category (CLSI breakpoint),"[1]; strain Kp3 (XDR, KPC)",R
same,susceptibility,[1]; strain Kp4,susceptible
same,Antibiotic susceptibility and clinical category (CLSI breakpoint),"[1]; strain Kp4 (XDR, AmpC)",S
same,MIC,[3]; [9],16 µg/mL
same,MIC,[3]; [10],16 µg/mL
same,MIC,[3]; [11],2 µg/mL
same,clinical category (CLSI breakpoint),[3]; strain Pa46,S
same,susceptibility,[3]; strain Pa46,susceptible
same,clinical category (CLSI breakpoint),[3]; strain Pa54,S
same,susceptibility,[3]; strain Pa54,susceptible
same,clinical category (CLSI breakpoint),[3]; strain Pa1016,S
same,susceptibility,[3]; strain Pa1016,susceptible
same,MIC,"[4]; Staphylococcus aureus, strain MRSA15, read-out: MIC",8 to 16 mg/L
same,MIC,[4]; strain MRSA16,8 to 16 mg/L
same,MIC,"K. pneumoniea; Klebsiella pneumoniae, strain Kp1, read-out: MIC",2 mg/L
same,MIC,"K. pneumoniea; Klebsiella pneumoniae, strain Kp4, read-out: MIC",1 to 2 mg/L
same,MIC,[2]; [7],≤ 2 µg/mL
same,susceptibility,[2]; strain Abl4 (ST2),susceptible
same,MIC,"A. baumannii; Acinetobacter baumannii, strain Ab4256, read-out: MIC",8 mg/L
same,MIC,"A. baumannii; Acinetobacter baumannii, strain Abl4, read-out: MIC",1 mg/L
same,MIC,"P. aeruginosa; Pseudomonas aeruginosa, strain Pa46, read-out: MIC",8 mg/L
same,MIC,"P. aeruginosa; Pseudomonas aeruginosa, strain Pa1016, read-out: MIC",0.5 mg/L
"CC1(C)S[C@@H]2[C@H](NC(=O)[C@H](N)c3ccccc3)C(=O)N2[C@H]1C(=O)O [AMP, ampicillin]",Antibiotic susceptibility and clinical category (CLSI breakpoint),[1]; [5],R
same,Antibiotic susceptibility and clinical category (CLSI breakpoint),"[1]; strain Kp2 (XDR, CTX-M, NDM)",R
same,Antibiotic susceptibility and clinical category (CLSI breakpoint),"[1]; strain Kp3 (XDR, KPC)",R
same,Antibiotic susceptibility and clinical category (CLSI breakpoint),"[1]; strain Kp4 (XDR, AmpC)",R
gentamicin,Antibiotic susceptibility and clinical category (CLSI breakpoint),[1]; [5],R
same,Antibiotic susceptibility and clinical category (CLSI breakpoint),"[1]; strain Kp2 (XDR, CTX-M, NDM)",R
same,susceptibility,[1]; strain Kp3,susceptible
same,Antibiotic susceptibility and clinical category (CLSI breakpoint),"[1]; strain Kp3 (XDR, KPC)",S
same,Antibiotic susceptibility and clinical category (CLSI breakpoint),"[1]; strain Kp4 (XDR, AmpC)",R
same,MIC values,[2]; strain Abl1 (ST103),>=16 mg/L
same,MIC values,[2]; strain Abl4 (ST2),4 mg/L
same,MIC values,[2]; strain Abl4256 (ST38),>8 mg/L
"C[C@@H](O)[C@H]1C(=O)N2C(C(=O)O)=C(SCCN=CN)C[C@H]12 [IMP, imipenem]",Antibiotic susceptibility and clinical category (CLSI breakpoint),[1]; [5],R
same,Antibiotic susceptibility and clinical category (CLSI breakpoint),"[1]; strain Kp2 (XDR, CTX-M, NDM)",R
same,Antibiotic susceptibility and clinical category (CLSI breakpoint),"[1]; strain Kp3 (XDR, KPC)",R
same,Antibiotic susceptibility and clinical category (CLSI breakpoint),"[1]; strain Kp4 (XDR, AmpC)",R
same,MIC,[3]; [9],256 µg/mL
same,MIC,[3]; [10],256 µg/mL
same,MIC,[3]; [11],16 µg/mL
same,MIC,[2]; [6],≥ 16 µg/mL
same,MIC,[2]; [7],≥ 16 µg/mL
same,MIC,[2]; [8],64 µg/mL
"CC(C)(O/N=C(\C(=O)N[C@@H]1C(=O)N2C(C(=O)[O-])=C(C[n+]3ccccc3)CS[C@H]12)c1csc(N)n1)C(=O)O [CAZ, ceftazidime]",Antibiotic susceptibility and clinical category (CLSI breakpoint),[1]; [5],R
same,Antibiotic susceptibility and clinical category (CLSI breakpoint),"[1]; strain Kp2 (XDR, CTX-M, NDM)",R
same,Antibiotic susceptibility and clinical category (CLSI breakpoint),"[1]; strain Kp3 (XDR, KPC)",R
same,Antibiotic susceptibility and clinical category (CLSI breakpoint),"[1]; strain Kp4 (XDR, AmpC)",R
same,MIC,[2]; [6],≥ 64 µg/mL
same,MIC,[2]; [7],≥ 64 µg/mL
same,MIC,[2]; [8],< 8 µg/mL
